# According to ChEMBL document CHEMBL3991601, “The target landscape of clinical kinase drugs” (Science, 2017):
# Calls of active or inactive are those of the source.
# What was measured:
# [1] = molecular target: T1, EKC/KEOPS complex subunit TP53RK (Homo sapiens, UniProt Q96S44)
# T1 sequence (Q96S44 whole entry): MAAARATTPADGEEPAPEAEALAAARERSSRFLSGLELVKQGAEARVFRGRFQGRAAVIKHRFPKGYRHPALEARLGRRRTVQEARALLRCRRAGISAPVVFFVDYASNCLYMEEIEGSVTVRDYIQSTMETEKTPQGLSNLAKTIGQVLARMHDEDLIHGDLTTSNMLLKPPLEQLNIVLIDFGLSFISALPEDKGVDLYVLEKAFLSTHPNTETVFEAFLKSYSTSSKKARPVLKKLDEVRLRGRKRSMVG
# [2] = molecular target: Dual specificity mitogen-activated protein kinase kinase 1 (Homo sapiens, UniProt Q02750)
# Dual specificity mitogen-activated protein kinase kinase 1, sequence (Q02750 whole entry): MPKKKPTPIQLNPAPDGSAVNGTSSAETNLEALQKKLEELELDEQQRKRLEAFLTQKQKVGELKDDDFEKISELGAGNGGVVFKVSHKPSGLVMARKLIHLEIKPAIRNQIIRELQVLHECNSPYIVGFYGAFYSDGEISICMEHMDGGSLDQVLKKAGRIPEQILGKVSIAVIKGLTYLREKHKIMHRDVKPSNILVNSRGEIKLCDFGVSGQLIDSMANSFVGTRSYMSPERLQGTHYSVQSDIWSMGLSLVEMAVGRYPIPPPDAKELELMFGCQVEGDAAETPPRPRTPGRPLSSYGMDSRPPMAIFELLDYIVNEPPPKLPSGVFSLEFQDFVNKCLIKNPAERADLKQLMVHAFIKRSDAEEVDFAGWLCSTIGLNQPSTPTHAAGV
# [3] = molecular target: Proto-oncogene tyrosine-protein kinase receptor Ret (Homo sapiens, UniProt P07949)
# Proto-oncogene tyrosine-protein kinase receptor Ret, sequence (P07949 whole entry): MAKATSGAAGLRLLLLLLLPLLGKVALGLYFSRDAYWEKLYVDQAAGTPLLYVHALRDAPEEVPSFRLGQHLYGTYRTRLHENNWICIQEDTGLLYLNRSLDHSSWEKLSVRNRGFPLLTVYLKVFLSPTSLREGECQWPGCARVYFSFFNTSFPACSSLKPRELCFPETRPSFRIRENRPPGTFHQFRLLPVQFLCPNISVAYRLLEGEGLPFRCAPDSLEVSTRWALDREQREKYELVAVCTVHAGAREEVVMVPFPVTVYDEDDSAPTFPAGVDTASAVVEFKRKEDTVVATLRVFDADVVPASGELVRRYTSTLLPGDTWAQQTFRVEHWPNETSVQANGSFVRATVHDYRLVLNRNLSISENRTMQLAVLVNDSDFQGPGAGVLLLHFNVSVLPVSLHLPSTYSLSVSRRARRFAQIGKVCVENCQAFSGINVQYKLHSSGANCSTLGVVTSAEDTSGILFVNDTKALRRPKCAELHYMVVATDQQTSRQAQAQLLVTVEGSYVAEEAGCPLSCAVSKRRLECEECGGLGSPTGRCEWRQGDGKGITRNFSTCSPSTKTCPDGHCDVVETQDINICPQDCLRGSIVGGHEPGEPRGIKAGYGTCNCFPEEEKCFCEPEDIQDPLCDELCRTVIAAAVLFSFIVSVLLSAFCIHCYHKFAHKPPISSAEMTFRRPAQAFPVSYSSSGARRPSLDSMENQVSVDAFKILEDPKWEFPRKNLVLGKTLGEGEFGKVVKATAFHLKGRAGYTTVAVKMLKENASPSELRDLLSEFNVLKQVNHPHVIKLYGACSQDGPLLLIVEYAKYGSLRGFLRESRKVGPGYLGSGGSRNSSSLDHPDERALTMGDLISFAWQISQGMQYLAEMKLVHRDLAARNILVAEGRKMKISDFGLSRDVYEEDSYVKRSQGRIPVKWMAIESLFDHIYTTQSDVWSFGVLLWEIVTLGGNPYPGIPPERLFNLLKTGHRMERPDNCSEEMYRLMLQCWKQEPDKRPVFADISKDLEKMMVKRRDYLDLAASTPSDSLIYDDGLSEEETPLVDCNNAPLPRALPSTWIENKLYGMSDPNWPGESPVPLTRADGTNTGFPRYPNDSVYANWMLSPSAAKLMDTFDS
# Myosin-10 = Myosin-10 (Homo sapiens, UniProt P35580)
# [4] = molecular target: Dual specificity protein kinase CLK2 (Homo sapiens, UniProt P49760)
# Dual specificity protein kinase CLK2, sequence (P49760 whole entry): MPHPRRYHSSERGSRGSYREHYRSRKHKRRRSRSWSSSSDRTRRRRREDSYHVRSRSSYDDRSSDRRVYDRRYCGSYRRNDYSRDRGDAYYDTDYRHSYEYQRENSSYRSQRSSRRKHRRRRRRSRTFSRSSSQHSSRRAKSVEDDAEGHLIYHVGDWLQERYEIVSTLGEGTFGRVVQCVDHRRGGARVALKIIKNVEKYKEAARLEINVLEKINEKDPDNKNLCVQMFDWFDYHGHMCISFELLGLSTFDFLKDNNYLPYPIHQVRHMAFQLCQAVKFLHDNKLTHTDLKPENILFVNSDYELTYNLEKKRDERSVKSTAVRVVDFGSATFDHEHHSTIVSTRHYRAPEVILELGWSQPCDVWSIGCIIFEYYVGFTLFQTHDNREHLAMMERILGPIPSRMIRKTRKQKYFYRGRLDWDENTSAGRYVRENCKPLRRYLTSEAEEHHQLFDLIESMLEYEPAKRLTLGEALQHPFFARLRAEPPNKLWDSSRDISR
# [5] = molecular target: Serine/threonine-protein kinase Nek7 (Homo sapiens, UniProt Q8TDX7)
# Serine/threonine-protein kinase Nek7, sequence (Q8TDX7 whole entry, the tested form may be a part): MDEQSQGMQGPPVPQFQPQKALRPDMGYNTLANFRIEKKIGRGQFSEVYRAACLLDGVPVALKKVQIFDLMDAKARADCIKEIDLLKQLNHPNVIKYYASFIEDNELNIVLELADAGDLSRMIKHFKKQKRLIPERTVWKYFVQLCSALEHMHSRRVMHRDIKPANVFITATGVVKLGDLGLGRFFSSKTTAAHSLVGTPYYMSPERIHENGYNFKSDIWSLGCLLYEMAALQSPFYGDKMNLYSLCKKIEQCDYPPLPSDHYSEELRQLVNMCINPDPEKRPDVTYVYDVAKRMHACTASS
# [6] = molecular target: T2, AarF domain-containing protein kinase 1 (Homo sapiens, UniProt Q86TW2)
# T2 sequence (Q86TW2 whole entry): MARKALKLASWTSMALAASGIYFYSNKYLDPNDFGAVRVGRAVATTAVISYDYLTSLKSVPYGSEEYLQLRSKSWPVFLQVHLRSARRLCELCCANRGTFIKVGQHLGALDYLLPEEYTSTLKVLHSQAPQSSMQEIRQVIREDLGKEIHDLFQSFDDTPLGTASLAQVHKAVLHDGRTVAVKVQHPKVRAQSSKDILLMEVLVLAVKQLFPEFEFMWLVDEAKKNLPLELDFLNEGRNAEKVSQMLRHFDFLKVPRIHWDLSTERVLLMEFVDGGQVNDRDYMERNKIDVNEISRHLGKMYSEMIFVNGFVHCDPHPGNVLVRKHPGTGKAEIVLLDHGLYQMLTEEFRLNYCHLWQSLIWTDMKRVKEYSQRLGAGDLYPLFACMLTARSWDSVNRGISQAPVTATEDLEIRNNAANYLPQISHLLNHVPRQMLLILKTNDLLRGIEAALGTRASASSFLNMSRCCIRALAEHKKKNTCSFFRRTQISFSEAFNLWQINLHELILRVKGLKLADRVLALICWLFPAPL
# [7] = molecular target: Membrane-associated progesterone receptor component 1 (Homo sapiens, UniProt O00264)
# Membrane-associated progesterone receptor component 1, sequence (O00264 whole entry): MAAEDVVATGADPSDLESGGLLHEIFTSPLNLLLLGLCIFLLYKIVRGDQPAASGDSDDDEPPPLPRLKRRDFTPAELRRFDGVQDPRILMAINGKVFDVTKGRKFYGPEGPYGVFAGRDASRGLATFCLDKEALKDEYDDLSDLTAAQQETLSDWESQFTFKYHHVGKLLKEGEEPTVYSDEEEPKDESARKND
# [8] = molecular target: Protein kinase C theta type (Homo sapiens, UniProt Q04759)
# Protein kinase C theta type, sequence (Q04759 whole entry): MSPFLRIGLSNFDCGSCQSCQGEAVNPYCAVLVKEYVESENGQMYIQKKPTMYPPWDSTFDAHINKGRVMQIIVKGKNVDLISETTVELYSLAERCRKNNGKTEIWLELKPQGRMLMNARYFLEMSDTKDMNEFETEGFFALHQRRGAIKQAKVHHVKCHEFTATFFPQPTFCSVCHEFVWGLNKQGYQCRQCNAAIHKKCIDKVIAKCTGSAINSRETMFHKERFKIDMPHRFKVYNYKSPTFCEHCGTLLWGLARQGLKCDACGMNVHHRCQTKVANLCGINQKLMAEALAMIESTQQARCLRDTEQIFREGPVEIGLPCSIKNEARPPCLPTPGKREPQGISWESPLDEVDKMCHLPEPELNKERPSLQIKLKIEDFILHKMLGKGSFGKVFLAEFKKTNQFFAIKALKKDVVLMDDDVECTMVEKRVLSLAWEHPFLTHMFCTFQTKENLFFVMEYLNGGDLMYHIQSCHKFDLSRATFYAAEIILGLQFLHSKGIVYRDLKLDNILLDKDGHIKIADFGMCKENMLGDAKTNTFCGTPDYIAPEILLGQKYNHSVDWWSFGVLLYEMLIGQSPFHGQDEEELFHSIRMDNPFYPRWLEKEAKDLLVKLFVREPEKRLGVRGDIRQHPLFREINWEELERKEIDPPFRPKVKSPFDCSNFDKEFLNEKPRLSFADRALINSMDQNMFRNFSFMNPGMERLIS
# [9] = molecular target: T3, Cysteine--tRNA ligase, cytoplasmic (Homo sapiens, UniProt P49589)
# T3 sequence (P49589 whole entry): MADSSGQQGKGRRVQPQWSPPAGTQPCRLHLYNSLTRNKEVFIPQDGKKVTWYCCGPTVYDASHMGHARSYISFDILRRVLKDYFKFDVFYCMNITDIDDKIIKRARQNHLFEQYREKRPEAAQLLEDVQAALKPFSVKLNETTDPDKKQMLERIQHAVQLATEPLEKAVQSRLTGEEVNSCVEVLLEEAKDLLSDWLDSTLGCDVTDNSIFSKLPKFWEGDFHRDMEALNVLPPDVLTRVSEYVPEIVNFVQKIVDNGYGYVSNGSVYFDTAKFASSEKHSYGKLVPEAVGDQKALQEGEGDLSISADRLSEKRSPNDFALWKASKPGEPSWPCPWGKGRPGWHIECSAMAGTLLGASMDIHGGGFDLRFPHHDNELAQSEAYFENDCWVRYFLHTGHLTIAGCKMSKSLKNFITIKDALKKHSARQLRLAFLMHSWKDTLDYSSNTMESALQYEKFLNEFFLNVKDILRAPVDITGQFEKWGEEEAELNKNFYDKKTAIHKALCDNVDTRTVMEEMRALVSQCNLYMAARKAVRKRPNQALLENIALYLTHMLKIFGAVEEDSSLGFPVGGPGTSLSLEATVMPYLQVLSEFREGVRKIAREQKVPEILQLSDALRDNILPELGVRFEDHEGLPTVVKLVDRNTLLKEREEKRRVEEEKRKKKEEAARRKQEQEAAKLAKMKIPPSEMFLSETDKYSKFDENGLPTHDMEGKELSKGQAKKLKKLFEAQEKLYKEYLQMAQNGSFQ
# [10] = molecular target: DNA topoisomerase 2-alpha (Homo sapiens, UniProt P11388)
# [11] = molecular target: Uncharacterized aarF domain-containing protein kinase 5 (Homo sapiens, UniProt Q3MIX3)
# Uncharacterized aarF domain-containing protein kinase 5, sequence (Q3MIX3 whole entry, the tested form may be a part): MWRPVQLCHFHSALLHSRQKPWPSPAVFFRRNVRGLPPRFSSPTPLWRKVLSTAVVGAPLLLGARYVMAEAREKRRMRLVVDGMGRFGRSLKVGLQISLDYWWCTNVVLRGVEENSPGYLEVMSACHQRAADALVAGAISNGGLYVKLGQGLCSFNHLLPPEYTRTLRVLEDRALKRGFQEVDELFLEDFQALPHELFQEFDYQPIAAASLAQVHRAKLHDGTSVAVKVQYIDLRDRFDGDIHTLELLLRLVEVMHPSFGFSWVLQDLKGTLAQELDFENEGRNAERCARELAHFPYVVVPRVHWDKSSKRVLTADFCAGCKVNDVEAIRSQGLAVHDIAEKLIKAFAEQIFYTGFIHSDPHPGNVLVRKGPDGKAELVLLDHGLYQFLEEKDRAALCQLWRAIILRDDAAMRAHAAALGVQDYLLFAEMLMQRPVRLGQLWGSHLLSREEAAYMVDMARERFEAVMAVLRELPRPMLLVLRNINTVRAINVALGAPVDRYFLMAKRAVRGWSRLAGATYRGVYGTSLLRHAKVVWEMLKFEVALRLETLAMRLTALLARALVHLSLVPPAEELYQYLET
# [12] = molecular target: Dual specificity testis-specific protein kinase 2 (Homo sapiens, UniProt Q96S53)
# Dual specificity testis-specific protein kinase 2, sequence (Q96S53 whole entry): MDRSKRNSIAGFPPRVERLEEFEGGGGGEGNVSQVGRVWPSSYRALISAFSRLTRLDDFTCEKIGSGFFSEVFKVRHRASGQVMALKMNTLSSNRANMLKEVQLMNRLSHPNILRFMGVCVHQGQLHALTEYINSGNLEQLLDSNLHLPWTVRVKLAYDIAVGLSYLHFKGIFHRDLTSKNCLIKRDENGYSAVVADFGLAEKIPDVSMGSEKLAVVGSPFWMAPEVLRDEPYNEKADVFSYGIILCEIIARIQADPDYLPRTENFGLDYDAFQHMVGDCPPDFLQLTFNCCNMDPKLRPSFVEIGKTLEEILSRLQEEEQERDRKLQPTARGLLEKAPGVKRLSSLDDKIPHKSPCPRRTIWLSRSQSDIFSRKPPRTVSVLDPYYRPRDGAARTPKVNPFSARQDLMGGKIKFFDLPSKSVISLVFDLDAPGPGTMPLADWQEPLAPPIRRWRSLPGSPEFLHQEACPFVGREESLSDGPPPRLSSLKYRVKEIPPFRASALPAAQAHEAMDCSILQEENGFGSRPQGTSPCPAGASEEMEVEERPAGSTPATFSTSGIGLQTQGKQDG
# Also: in the data inactive means no Kd found up to 30 µM.
SMILES,Kd [1],Kd [2],Kd [3],Kd (Myosin-10),Kd [4],Kd [5],Kd [6],Kd [7],Kd [8],Kd [9],Kd [10],Kd [11],Kd [12]
S=C(NCc1ccc2c(c1)OCO2)N1CCN(c2ncnc3c2oc2ccccc23)CC1 [AMUVATINIB],> 30 µM (inactive),> 30 µM (inactive),> 30 µM (inactive),> 30 µM (inactive),> 30 µM (inactive),> 30 µM (inactive),> 30 µM (inactive),> 30 µM (inactive),> 30 µM (inactive),> 30 µM (inactive),> 30 µM (inactive),–,–
COc1cc2nccc(Oc3ccc(NC(=O)C4(C(=O)Nc5ccc(F)cc5)CC4)cc3)c2cc1OC [CABOZANTINIB],> 30 µM (inactive),> 30 µM (inactive),–,> 30 µM (inactive),> 30 µM (inactive),> 30 µM (inactive),> 30 µM (inactive),> 30 µM (inactive),> 30 µM (inactive),> 30 µM (inactive),–,–,–
CC1(COc2ccc3c(c2)ncn3-c2ccc3cccc(N4CCC(N)CC4)c3n2)COC1 [CRENOLANIB],> 30 µM (inactive),> 30 µM (inactive),0.81 µM (active),> 30 µM (inactive),–,> 30 µM (inactive),> 30 µM (inactive),–,–,> 30 µM (inactive),> 30 µM (inactive),> 30 µM (inactive),> 30 µM (inactive)
O=S(=O)(c1cccc2cnccc12)N1CCCNCC1 [FASUDIL],> 30 µM (inactive),–,–,> 30 µM (inactive),–,> 30 µM (inactive),> 30 µM (inactive),–,–,> 30 µM (inactive),> 30 µM (inactive),> 30 µM (inactive),> 30 µM (inactive)
Cc1c(Cn2c(C)nc3c(C(=O)O)cc(N4CCOCC4)cc32)cccc1C(F)(F)F [GSK-2636771],> 30 µM (inactive),> 30 µM (inactive),> 30 µM (inactive),–,> 30 µM (inactive),> 30 µM (inactive),> 30 µM (inactive),> 30 µM (inactive),> 30 µM (inactive),> 30 µM (inactive),> 30 µM (inactive),–,> 30 µM (inactive)
C=CC(=O)Nc1cc(Nc2nccc(-c3cn(C)c4ccccc34)n2)c(OC)cc1N(C)CCN(C)C [OSIMERTINIB],> 30 µM (inactive),> 30 µM (inactive),> 30 µM (inactive),> 30 µM (inactive),> 30 µM (inactive),> 30 µM (inactive),> 30 µM (inactive),> 30 µM (inactive),> 30 µM (inactive),0.012 µM,> 30 µM (inactive),–,> 30 µM (inactive)
COc1cc(F)c(F)c(Nc2ccc(I)cc2F)c1NS(=O)(=O)C1(C[C@H](O)CO)CC1 [REFAMETINIB],> 30 µM (inactive),–,> 30 µM (inactive),–,> 30 µM (inactive),> 30 µM (inactive),0.778 µM,–,> 30 µM (inactive),> 30 µM (inactive),–,–,–
O=C(O)c1ccc2c(c1)nc(Nc1cccc(Cl)c1)c1ccncc12 [SILMITASERTIB],–,> 30 µM (inactive),> 30 µM (inactive),–,–,> 30 µM (inactive),> 30 µM (inactive),> 30 µM (inactive),–,> 30 µM (inactive),–,–,> 30 µM (inactive)
C=CCN(/C=C1/C(=O)O[C@H](COC)[C@@]2(C)C1=C(O)C(=O)C1=C2[C@H](OC(C)=O)C[C@]2(C)C(=O)CC[C@@H]12)CC=C [SONOLISIB],> 30 µM (inactive),> 30 µM (inactive),> 30 µM (inactive),> 30 µM (inactive),–,> 30 µM (inactive),> 30 µM (inactive),–,–,–,–,–,–
NC(=O)c1ccc(N(C(N)=O)c2c(F)cccc2F)nc1-c1ccc(F)cc1F [VX-702],> 30 µM (inactive),> 30 µM (inactive),> 30 µM (inactive),–,> 30 µM (inactive),> 30 µM (inactive),> 30 µM (inactive),> 30 µM (inactive),> 30 µM (inactive),> 30 µM (inactive),> 30 µM (inactive),–,> 30 µM (inactive)
